Assay results: PubChem BioAssay (NCI)
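Tested at 5 concentrations; 48 h exposure; 96-well plates; endpoints linearly interpolated, else capped at highest concentration. TGI: concentration producing complete growth inhibition.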

Experiments:
Experiment in all cases: NCI tumour cell line growth inhibition, 48 h
HOP-62 NSCLC = tested on: HOP-62 NSCLC
A549 NSCLC = tested on: A549 NSCLC
786-0 renal = tested on: 786-0 renal
U251 CNS = tested on: U251 CNS
IGROV1 ovarian = tested on: IGROV1 ovarian
HOP-92 NSCLC = tested on: HOP-92 NSCLC
COLO 205 colon = tested on: COLO 205 colon
EKVX NSCLC = tested on: EKVX NSCLC
SW-620 colon = tested on: SW-620 colon
SK-MEL-2 melanoma = tested on: SK-MEL-2 melanoma
NCI-H522 lung = tested on: NCI-H522 lung
M19-MEL melanoma = tested on: M19-MEL melanoma
XF 498 CNS = tested on: XF 498 CNS
HCC-2998 colon = tested on: HCC-2998 colon
SK-OV-3 ovarian = tested on: SK-OV-3 ovarian
UACC-257 melanoma = tested on: UACC-257 melanoma
HCT-116 colon = tested on: HCT-116 colon
UO-31 renal = tested on: UO-31 renal
KM20L2 colon = tested on: KM20L2 colon
NCI-H23 lung = tested on: NCI-H23 lung
OVCAR-5 ovarian = tested on: OVCAR-5 ovarian
SN12C renal = tested on: SN12C renal
LXFL 529 NSCLC = tested on: LXFL 529 NSCLC
CAKI-1 renal = tested on: CAKI-1 renal
RPMI-8226 leukemia = tested on: RPMI-8226 leukemia
HL-60(TB) leukemia = tested on: HL-60(TB) leukemia
SF-295 CNS = tested on: SF-295 CNS
KM12 colon = tested on: KM12 colon
DMS 114 small cell lung = tested on: DMS 114 small cell lung
SF-539 CNS = tested on: SF-539 CNS
UACC-62 melanoma = tested on: UACC-62 melanoma
SNB-19 CNS = tested on: SNB-19 CNS
ACHN renal = tested on: ACHN renal
MALME-3M melanoma = tested on: MALME-3M melanoma
MOLT-4 leukemia = tested on: MOLT-4 leukemia
OVCAR-4 ovarian = tested on: OVCAR-4 ovarian
TK-10 renal = tested on: TK-10 renal
OVCAR-3 ovarian = tested on: OVCAR-3 ovarian
SF-268 CNS = tested on: SF-268 CNS
M14 melanoma = tested on: M14 melanoma
LOX IMVI melanoma = tested on: LOX IMVI melanoma
K-562 leukemia = tested on: K-562 leukemia
OVCAR-8 ovarian = tested on: OVCAR-8 ovarian
HCT-15 colon = tested on: HCT-15 colon
CCRF-CEM leukemia = tested on: CCRF-CEM leukemia
SR leukemia = tested on: SR leukemia
NCI-H226 lung = tested on: NCI-H226 lung
SNB-78 CNS = tested on: SNB-78 CNS
SK-MEL-28 melanoma = tested on: SK-MEL-28 melanoma
HT29 colon = tested on: HT29 colon
DMS 273 small cell lung = tested on: DMS 273 small cell lung
DLD-1 colon = tested on: DLD-1 colon
NCI-H460 lung = tested on: NCI-H460 lung
RXF 393 renal = tested on: RXF 393 renal
SNB-75 CNS = tested on: SNB-75 CNS
SK-MEL-5 melanoma = tested on: SK-MEL-5 melanoma

CCOC(=O)/C(=C/c1ccc(N(C)C)cc1)N(CC)CC
TGI (HOP-62 NSCLC): > 100 µM
TGI (A549 NSCLC): > 100 µM
TGI (786-0 renal): > 100 µM
TGI (U251 CNS): > 100 µM
TGI (IGROV1 ovarian): > 100 µM
TGI (HOP-92 NSCLC): > 100 µM
TGI (COLO 205 colon): > 100 µM
TGI (EKVX NSCLC): > 100 µM
TGI (SW-620 colon): > 100 µM
TGI (SK-MEL-2 melanoma): > 100 µM
TGI (NCI-H522 lung): > 100 µM
TGI (M19-MEL melanoma): 60.1 µM
TGI (XF 498 CNS): > 100 µM
TGI (HCC-2998 colon): > 100 µM
TGI (SK-OV-3 ovarian): > 100 µM
TGI (UACC-257 melanoma): > 100 µM
TGI (HCT-116 colon): > 100 µM
TGI (UO-31 renal): > 100 µM
TGI (KM20L2 colon): > 100 µM
TGI (NCI-H23 lung): > 100 µM
TGI (OVCAR-5 ovarian): > 100 µM
TGI (SN12C renal): > 100 µM
TGI (LXFL 529 NSCLC): > 100 µM
TGI (CAKI-1 renal): > 100 µM
TGI (RPMI-8226 leukemia): 89 µM
TGI (HL-60(TB) leukemia): 81 µM
TGI (SF-295 CNS): > 100 µM
TGI (KM12 colon): > 100 µM
TGI (DMS 114 small cell lung): > 100 µM
TGI (SF-539 CNS): > 100 µM
TGI (UACC-62 melanoma): > 100 µM
TGI (SNB-19 CNS): > 100 µM
TGI (ACHN renal): > 100 µM
TGI (MALME-3M melanoma): > 100 µM
TGI (MOLT-4 leukemia): > 100 µM
TGI (OVCAR-4 ovarian): > 100 µM
TGI (TK-10 renal): > 100 µM
TGI (OVCAR-3 ovarian): > 100 µM
TGI (SF-268 CNS): > 100 µM
TGI (M14 melanoma): > 100 µM
TGI (LOX IMVI melanoma): 78.5 µM
TGI (K-562 leukemia): 65.8 µM
TGI (OVCAR-8 ovarian): > 100 µM
TGI (HCT-15 colon): > 100 µM
TGI (CCRF-CEM leukemia): 91.9 µM
TGI (SR leukemia): > 100 µM
TGI (NCI-H226 lung): 94.2 µM
TGI (SNB-78 CNS): > 100 µM
TGI (SK-MEL-28 melanoma): > 100 µM

Cc1cccc2c1Sc1ccccc1C2NC(=O)CCN(C)C (configuration not stated)
TGI (HOP-62 NSCLC): > 100 µM
TGI (A549 NSCLC): > 100 µM
TGI (HT29 colon): > 100 µM
TGI (U251 CNS): > 100 µM
TGI (IGROV1 ovarian): > 100 µM
TGI (COLO 205 colon): > 100 µM
TGI (EKVX NSCLC): > 100 µM
TGI (SW-620 colon): > 100 µM
TGI (DMS 273 small cell lung): > 100 µM
TGI (M19-MEL melanoma): > 100 µM
TGI (HCC-2998 colon): > 100 µM
TGI (SK-OV-3 ovarian): > 100 µM
TGI (UACC-257 melanoma): > 100 µM
TGI (HCT-116 colon): > 100 µM
TGI (UO-31 renal): > 100 µM
TGI (DLD-1 colon): > 100 µM
TGI (KM20L2 colon): > 100 µM
TGI (NCI-H23 lung): > 100 µM
TGI (OVCAR-5 ovarian): > 100 µM
TGI (SN12C renal): > 100 µM
TGI (LXFL 529 NSCLC): > 100 µM
TGI (NCI-H460 lung): > 100 µM
TGI (RPMI-8226 leukemia): > 100 µM
TGI (HL-60(TB) leukemia): > 100 µM
TGI (RXF 393 renal): > 100 µM
TGI (DMS 114 small cell lung): > 100 µM
TGI (SF-539 CNS): > 100 µM
TGI (UACC-62 melanoma): > 100 µM
TGI (SNB-19 CNS): > 100 µM
TGI (ACHN renal): > 100 µM
TGI (MOLT-4 leukemia): > 100 µM
TGI (SNB-75 CNS): > 100 µM
TGI (OVCAR-4 ovarian): > 100 µM
TGI (TK-10 renal): > 100 µM
TGI (SF-268 CNS): > 100 µM
TGI (M14 melanoma): > 100 µM
TGI (LOX IMVI melanoma): > 100 µM
TGI (K-562 leukemia): > 100 µM
TGI (OVCAR-8 ovarian): > 100 µM
TGI (HCT-15 colon): > 100 µM
TGI (CCRF-CEM leukemia): > 100 µM
TGI (SR leukemia): > 100 µM
TGI (NCI-H226 lung): > 100 µM
TGI (SNB-78 CNS): > 100 µM
TGI (SK-MEL-5 melanoma): > 100 µM
TGI (SK-MEL-28 melanoma): > 100 µM

CCOC1c2cc(C(C)C)c(O)c(O)c2[C@@]23CCCC(C)(C)C2C1OC3=O (some centres not stated)
TGI (HOP-62 NSCLC): > 100 µM
TGI (A549 NSCLC): > 100 µM
TGI (HT29 colon): > 100 µM
TGI (786-0 renal): > 100 µM
TGI (U251 CNS): > 100 µM
TGI (IGROV1 ovarian): > 100 µM
TGI (COLO 205 colon): > 100 µM
TGI (EKVX NSCLC): > 100 µM
TGI (SW-620 colon): > 100 µM
TGI (SK-MEL-2 melanoma): > 100 µM
TGI (NCI-H522 lung): 98.6 µM
TGI (DMS 273 small cell lung): > 100 µM
TGI (M19-MEL melanoma): > 100 µM
TGI (HCC-2998 colon): > 100 µM
TGI (SK-OV-3 ovarian): > 100 µM
TGI (UACC-257 melanoma): > 100 µM
TGI (HCT-116 colon): > 100 µM
TGI (UO-31 renal): > 100 µM
TGI (DLD-1 colon): > 100 µM
TGI (KM20L2 colon): > 100 µM
TGI (NCI-H23 lung): > 100 µM
TGI (OVCAR-5 ovarian): > 100 µM
TGI (SN12C renal): > 100 µM
TGI (LXFL 529 NSCLC): > 100 µM
TGI (CAKI-1 renal): > 100 µM
TGI (NCI-H460 lung): > 100 µM
TGI (RPMI-8226 leukemia): > 100 µM
TGI (HL-60(TB) leukemia): > 100 µM
TGI (RXF 393 renal): > 100 µM
TGI (SF-295 CNS): > 100 µM
TGI (DMS 114 small cell lung): > 100 µM
TGI (SF-539 CNS): > 100 µM
TGI (UACC-62 melanoma): > 100 µM
TGI (SNB-19 CNS): > 100 µM
TGI (ACHN renal): > 100 µM
TGI (MALME-3M melanoma): > 100 µM
TGI (MOLT-4 leukemia): > 100 µM
TGI (SNB-75 CNS): > 100 µM
TGI (TK-10 renal): > 100 µM
TGI (OVCAR-3 ovarian): > 100 µM
TGI (SF-268 CNS): > 100 µM
TGI (M14 melanoma): > 100 µM
TGI (LOX IMVI melanoma): > 100 µM
TGI (K-562 leukemia): > 100 µM
TGI (OVCAR-8 ovarian): > 100 µM
TGI (HCT-15 colon): > 100 µM
TGI (CCRF-CEM leukemia): > 100 µM
TGI (SR leukemia): > 100 µM
TGI (NCI-H226 lung): > 100 µM
TGI (SNB-78 CNS): > 100 µM
TGI (SK-MEL-5 melanoma): > 100 µM
TGI (SK-MEL-28 melanoma): > 100 µM

CN(CCN(C)C(=O)CCn1cc(F)c(=O)[nH]c1=O)C(=O)CCn1cc(F)c(=O)[nH]c1=O
TGI (HOP-62 NSCLC): > 100 µM
TGI (A549 NSCLC): > 100 µM
TGI (HT29 colon): > 100 µM
TGI (786-0 renal): > 100 µM
TGI (U251 CNS): > 100 µM
TGI (IGROV1 ovarian): > 100 µM
TGI (COLO 205 colon): > 100 µM
TGI (EKVX NSCLC): > 100 µM
TGI (SW-620 colon): > 100 µM
TGI (SK-MEL-2 melanoma): > 100 µM
TGI (NCI-H522 lung): 12.5 µM
TGI (DMS 273 small cell lung): > 100 µM
TGI (M19-MEL melanoma): > 100 µM
TGI (XF 498 CNS): > 100 µM
TGI (HCC-2998 colon): > 100 µM
TGI (HCT-116 colon): > 100 µM
TGI (UO-31 renal): > 100 µM
TGI (KM20L2 colon): > 100 µM
TGI (NCI-H23 lung): > 100 µM
TGI (OVCAR-5 ovarian): > 100 µM
TGI (SN12C renal): > 100 µM
TGI (LXFL 529 NSCLC): > 100 µM
TGI (NCI-H460 lung): > 100 µM
TGI (RPMI-8226 leukemia): > 100 µM
TGI (HL-60(TB) leukemia): > 100 µM
TGI (RXF 393 renal): > 100 µM
TGI (SF-295 CNS): > 100 µM
TGI (KM12 colon): > 100 µM
TGI (DMS 114 small cell lung): > 100 µM
TGI (SF-539 CNS): > 100 µM
TGI (UACC-62 melanoma): > 100 µM
TGI (SNB-19 CNS): > 100 µM
TGI (ACHN renal): > 100 µM
TGI (MALME-3M melanoma): > 100 µM
TGI (MOLT-4 leukemia): > 100 µM
TGI (SNB-75 CNS): > 100 µM
TGI (OVCAR-4 ovarian): > 100 µM
TGI (TK-10 renal): > 100 µM
TGI (OVCAR-3 ovarian): > 100 µM
TGI (SF-268 CNS): > 100 µM
TGI (M14 melanoma): > 100 µM
TGI (LOX IMVI melanoma): > 100 µM
TGI (K-562 leukemia): > 100 µM
TGI (OVCAR-8 ovarian): > 100 µM
TGI (HCT-15 colon): > 100 µM
TGI (CCRF-CEM leukemia): > 100 µM
TGI (SR leukemia): > 100 µM
TGI (NCI-H226 lung): > 100 µM
TGI (SK-MEL-5 melanoma): > 100 µM
TGI (SK-MEL-28 melanoma): > 100 µM
